Measured values as given in US5110976A, “Insecticidal composition comprising more than one active ingredient” (priority 1985, dated 1992).
Values after ≈ are worked out from the molar mass of the structure shown.

Legend:
Musca domestica = details: mixture activity lower than the calculated value; cited from earlier work
Phaedon cochleariae = details: mixture activity lower than the calculated value; cited from earlier work
[1] = test system: Leptinotarsa decemlineata; assay: Topical test on potato beetle (Table 6); format: in vivo, imagos; details: 24 h
Experimental: The active ingredients are dissolved in 2-ethoxyethanol and […] of the solutions are applied onto the abdominal sterna of potato beetle (Leptinotarsa decemlineata) imagos. The treatments are carried out by using two parallels and 10 insects for each dose. […]

Hyphantria cunea [2] = assay: Topical test on fall webworm (Table 8); format: in vivo, L7-L8 larvae; details: 24 h
Experimental: (§1) The active ingredients are dissolved in 2-ethoxyethanol and the solutions are applied in the form of 0.2 μl droplets onto the back of fall webworm (Hyphantria cunea) of L7 -L8 larvae stage. The treated worms are placed on strawberry leaves in Petri-dishes. The test is carried out by using 5 doses; 2 parallels and 10 insects for each dose.

L. decemlineata [3] = assay: 5 EC formulation sprayed on glass plates (Table 9); format: in vivo, Colorado beetle (L. decemlineata), imagos; details: 48 hours
Experimental: (§2) From a 5 EC formulation according to Example 17 50-, 100-, 200-, 400-, 800- and 1600-fold diluted emulsions are prepared by diluting with water. 0.5 ml of the emulsions are sprayed onto glass plates whereupon after drying 10 Colorado beetles (L. decemlineata) imagos are placed on each glass plate and the insects are covered. The tests are carried out with 6 doses by carrying out 3 parallels for each dose. The killed insects are counted after 48 hours and the percental mortality rate is calculated.

Acanthoscelides obtectus [4] = assay: 5 EC formulation, insecticidal effect on bean weevil (Table 10); format: in vivo, bean weevil (Acanthoscelides obtectus), imagos; details: 24 hours
Experimental: as §2
The insecticidal effect is tested on been weevil (Acanthoscelides obtectus) imagos. The killed insects are counted after 24 hours and the percental mortality rate is calculated.

Colorado potato beetle [5] = assay: Topical test on Colorado potato beetle (Table 14); format: in vivo, Colorado potato beetle (Leptinotersa decemlineata), imago
Experimental: In Table 14 the activity on Colorado potato beetle is shown.
The test materials are dissolved in 2-ethoxyethanol (Cellosolve). One 0.3 μl drop of the solution is applied to the abdominal sterna of the imago. The treatment is carried out by using 2 parallels and 10 insects for each dose. […]

Hyphantria cunea [6] = assay: Topical test on fall webworm (Table 18); format: in vivo, fall wetworm (Hyphantria cunea), L7-L8 larvae
Experimental: as §1, with “2-ethoxy-ethanol” for “2-ethoxyethanol”, “wetworm” for “webworm”, “[…],” for “5 doses;”, “dose. The killed worms are counted after 24 hours and the percental mortality rate is calculated.” for “dose.”

Tetranychus urticae = assay: Potter Tower spray on mite-infested leaves (Table 19); format: in vivo, mites (Tetranychus urticae); details: mortality after 24 hours
Experimental: Leaves already infested with mites (Tetranychus urticae) were sprayed under Potter Tower. Mortality after 24 hours on the treated leaves was compared with the control.

L. decemlineata [7] = assay: 5 EC formulations sprayed on glass plates (Table 20); format: in vivo, imagos; details: 5 EC formulation, 48 hours
Experimental: (§3) The 5 EC formulations prepared according to Example 42 are diluted 50x, 100x, 200x, 400x, 800x and 1600x with water and 0.5 ml doses are sprayed onto glass plates. After drying 10 L. decemlineata imagos are placed on each glass plate and the insects are covered with Petri-dishes. The tests are carried out by using 6 doses and 3 parallels for each dose. The killed insects are counted after 48 hours.

Acanthoscelides obtectus [8] = assay: 5 EC formulations sprayed on glass plates (Table 21); format: in vivo, bean weevil (Acanthoscelides obtectus), imagos; details: 5 EC formulation, 24 hours
Experimental: as §3
Glass plates are sprayed with 5 EC formulations prepared according to Example 42 in an analogous manner to Example 52. After drying 10 bean weevil (Acanthoscelides obtectus) imagos are placed on each plate and the insects are covered with Petri-dishes. The killed insects are counted after 24 hours. The test is carried out with 6 doses by using 3 parallels for each dose.

A. matricariae [9] = assay: Direct contact test of pupae (Table 5); format: in vivo
Experimental: Mature pupae of A. matricariae on paprika leaves in Petri dishes are exposed to a direct spray of the active ingredients.
Two or three days before emergence paprika leaves with parasitized pupae are used. The leaves are laid on filter paper in a plastic Petri dish The filter paper is moistened.
Application of treatment: See Example 23.
The pieces of leaf are transferred after treatment to clean Petri dish bottoms The trays are stored in a clinic chamber at 20° C. temperature, 70% relative humidity and a light-dark cycle of […]. Surviving pupae hatch after 2-3 days. The numbers of hatched and dead pupae are counted.

Myzus persicae = assay: 5 EC formulations on aphid-infected bean plants (Table 22); format: in vivo, green peach aphids (Myzus persicae)
Experimental: 15 bean plants infected with green peach aphids (Myzus persicae) at 6 days' age are cultivated in each pot. At 12 days' age the strongly and uniformly infected plants are selected and sprayed to run-off with emulsions freshly prepared from the formulation according to Example 42. Treatments are carried out with three doses (active ingredient 2.5, 5 and 10 ppm) and four parallels are used (one pot per parallel). The second, fourth and eighth day after treatment the aphids are swept down from the plants to a white paper with a fine brush and the live insects are counted.

Colorado potato beetle [10] = assay: Plot field test on Colorado potato beetle (Table 24); format: in vivo, adults; details: 10 g active ingredients/ha
Experimental: The treatments are performed on a 25 m^2 plot strongly infected with Colorado potato beetle. 10 plants per plot are specially marked on which the Colorado potato beetles were counted previously. (During assessment of the number of pests only adults of the second Summer generation are taken into consideration, because at the point of time of the test the ratio of larvae of stages L3 and L4 is negligible). Treatment is accomplished on 25 M^2 plots at a dose of 10 g of active ingredients/ha with aqueous suspensions of the formulations according to Example 37 and three parallels are used. The test is evaluated by counting the leave insects on the marked plants. The average values of three parallel tests are disclosed in Table 24.

Aphidinus matricariae = assay: Residual contact test on adults (Table 25); format: in vivo, adult females
Experimental: Residual contact test on adults of Aphidinus matricariae. Adults of A. matricariae are exposed to residues of the active ingredients freshly applied on glass plates forming cages, then the survivors are counted.
Treatment: test product and control treated with water.
Replicates: at least 3. Plot size (net): 1 cage.
Parasites of known age (24 hours) are used. […]
10 females of A. matricariae are introduced into each cage and supplied with honey as food. The number of females surviving exposure is determined after 1, 5 and 24 hours, in independent runs. Total number of survivors is calculate for each cage.

A. matricariae [11] = assay: Direct contact test on pupae (Table 26); format: in vivo
Experimental: Mature pupae of A. matricariae on paprika leaves in Petri-dishes are exposed to a direct spray of the active ingredients. Two or three days before emergence paprika leaves with parasitized pupae are used. The leaves are laid on moistened filter paper in a plastic Petri-dish.
Application of treatment: See Example 57.
The pieces of leaf are transferred after treatment to clean Petri-dish bottoms. The trays are stored in a climatic chamber at 20° C. temperature, 70% relative humidity and a light-dark cycle of 16-8 h. Surviving pupae hatch after 2-3 days. The numbers of hatched and dead pupae are counted.

## CC1(C)[C@H](C=C(Cl)Cl)[C@H]1C(=O)OC(C#N)c1cccc(Oc2ccccc2)c1 (mixture of isomers) [mixture of both tested isomers]
Musca domestica
  rate of antagonism: 1.42
Phaedon cochleariae
  rate of antagonism: 1.46

## CC1(C)C(C=C(Cl)Cl)C1C(=O)OC(C#N)c1cccc(Oc2ccccc2)c1 (stereo not drawn) [cypermethrin]
[1]; 0.05 μg/insect
  mortality at 0.05 µg/insect: 0%
[1]; 0.10 μg/insect
  mortality at 0.1 µg/insect: 20%
[1]; 0.20 μg/insect
  mortality at 0.2 µg/insect: 45%
[1]; 0.40 μg/insect
  mortality at 0.4 µg/insect: 75%
Hyphantria cunea [2]; 0.023 μg/larvae
  mortality at 0.023 µg/larva: 0%
Hyphantria cunea [2]; 0.047 μg/larvae
  mortality at 0.047 µg/larva: 0%
Hyphantria cunea [2]; 0.094 μg/larvae
  mortality at 0.094 µg/larva: 25%
Hyphantria cunea [2]; 0.188 μg/larvae
  mortality at 0.188 µg/larva: 50%
Hyphantria cunea [2]; 0.375 μg/larvae
  mortality at 0.375 µg/larva: 75%
L. decemlineata [3]; dilution 50x
  Mortality %: 83%
L. decemlineata [3]; dilution 100x
  Mortality %: 67%
L. decemlineata [3]; dilution 200x
  Mortality %: 50%
L. decemlineata [3]; dilution 400x
  Mortality %: 33%
L. decemlineata [3]; dilution 800x
  Mortality %: 17%
L. decemlineata [3]; dilution 1600x
  Mortality %: 0%
Acanthoscelides obtectus [4]; dilution 50x
  Mortality %: 60%
Acanthoscelides obtectus [4]; dilution 100x
  Mortality %: 43%
Acanthoscelides obtectus [4]; dilution 200x
  Mortality %: 20%
Acanthoscelides obtectus [4]; dilution 400x
  Mortality %: 10%
Acanthoscelides obtectus [4]; dilution 800x
  Mortality %: 3%
Acanthoscelides obtectus [4]; dilution 1600x
  Mortality %: 0%
Colorado potato beetle [5]; 0.05 μg/beetle
  24 hours' mortality %: 0%
Colorado potato beetle [5]; 0.10 μg/beetle
  24 hours' mortality %: 20%
Colorado potato beetle [5]; 0.20 μg/beetle
  24 hours' mortality %: 45%
Colorado potato beetle [5]; 0.40 μg/beetle
  24 hours' mortality %: 75%
Hyphantria cunea [6]; 0.023 (μg/disc), 1440 min
  24 hours' mortality: 0%
Hyphantria cunea [6]; 0.047 (μg/disc), 1440 min
  24 hours' mortality: 10%
Hyphantria cunea [6]; 0.094 (μg/disc), 1440 min
  24 hours' mortality: 25%
Hyphantria cunea [6]; 0.188 (μg/disc), 1440 min
  24 hours' mortality: 50%
Hyphantria cunea [6]; 0.375 (μg/disc)
  24 hours' mortality: 75%
Tetranychus urticae; 1440 min
  approx. LD50: ~0.120 ppm
L. decemlineata [7]; dilution 50x, 2880 min
  Mortality %: 83%
L. decemlineata [7]; dilution 100x, 2880 min
  Mortality %: 67%
L. decemlineata [7]; dilution 200x, 2880 min
  Mortality %: 50%
L. decemlineata [7]; dilution 400x, 2880 min
  Mortality %: 33%
L. decemlineata [7]; dilution 800x, 2880 min
  Mortality %: 17%
L. decemlineata [7]; dilution 1600x
  Mortality %: 0%
Acanthoscelides obtectus [8]; dilution 50x, 1440 min
  Mortality %: 60%
Acanthoscelides obtectus [8]; dilution 100x, 1440 min
  Mortality %: 45%
Acanthoscelides obtectus [8]; dilution 200x, 1440 min
  Mortality %: 20%
Acanthoscelides obtectus [8]; dilution 400x, 1440 min
  Mortality %: 10%
Acanthoscelides obtectus [8]; dilution 800x, 1440 min
  Mortality %: 3%
Acanthoscelides obtectus [8]; dilution 1600x, 1440 min
  Mortality %: 0%

## CC1(C)[C@H](C(=O)O[C@H](C#N)c2cccc(Oc3ccccc3)c2)[C@@H]1C=C(Br)Br [deltamethrin]
A. matricariae [9]; 1 ppm
  Mortality %: 0%
A. matricariae [9]; 5 ppm
  Mortality %: 0%
A. matricariae [9]; 10 ppm
  Mortality %: 33.0%
A. matricariae [9]; 30 ppm
  Mortality %: 75.0%
Colorado potato beetle [5]; Leptinotarsa decemlineata, topical, read-out: 24 hours' mortality %, 0.05 μg/beetle
  mortality at 0.05 µg/beetle: 45%
Colorado potato beetle [5]; Leptinotarsa decemlineata, topical, read-out: 24 hours' mortality %, 0.10 μg/beetle
  mortality at 0.1 µg/beetle: 60%
Colorado potato beetle [5]; Leptinotarsa decemlineata, topical, read-out: 24 hours' mortality %, 0.20 μg/beetle
  mortality at 0.2 µg/beetle: 75%
Colorado potato beetle [5]; Leptinotarsa decemlineata, topical, read-out: 24 hours' mortality %, 0.40 μg/beetle
  mortality at 0.4 µg/beetle: 85%
Tetranychus urticae; Tetranychus urticae, 24 h, read-out: approx. LD50
  LC50: ~0.185 µg/mL (≈ 0.366 µM)
L. decemlineata [7]; dilution 50x
  Mortality %: 100%
L. decemlineata [7]; dilution 100x
  Mortality %: 83%
L. decemlineata [7]; dilution 200x
  Mortality %: 67%
L. decemlineata [7]; dilution 400x
  Mortality %: 53%
L. decemlineata [7]; dilution 800x
  Mortality %: 35%
L. decemlineata [7]; dilution 1600x
  Mortality %: 7%
Acanthoscelides obtectus [8]; dilution 50x
  Mortality %: 75%
Acanthoscelides obtectus [8]; dilution 100x
  Mortality %: 57%
Acanthoscelides obtectus [8]; dilution 200x
  Mortality %: 37%
Acanthoscelides obtectus [8]; dilution 400x
  Mortality %: 20%
Acanthoscelides obtectus [8]; dilution 800x
  Mortality %: 13%
Acanthoscelides obtectus [8]; dilution 1600x
  Mortality %: 7%
Myzus persicae; 2.5 ppm, 2 days after treatment (control 1850)
  Average number of aphids per pot: 26
Myzus persicae; 2.5 ppm, 4 days after treatment (control 2780)
  Average number of aphids per pot: 47
Myzus persicae; 2.5 ppm, 8 days after treatment (control 4120)
  Average number of aphids per pot: 137
Myzus persicae; 5.0 ppm, 2 days after treatment (control 1850)
  Average number of aphids per pot: 13
Myzus persicae; 5.0 ppm, 4 days after treatment (control 2780)
  Average number of aphids per pot: 19
Myzus persicae; 5.0 ppm, 8 days after treatment (control 4120)
  Average number of aphids per pot: 29
Myzus persicae; 10.0 ppm, 2 days after treatment (control 1850)
  Average number of aphids per pot: 6
Myzus persicae; 10.0 ppm, 4 days after treatment (control 2780)
  Average number of aphids per pot: 11
Myzus persicae; 10.0 ppm, 8 days after treatment (control 4120)
  Average number of aphids per pot: 23
Colorado potato beetle [10]; 0 days after treatment (control 211)
  Average number of live insects/10 plants: 181
Colorado potato beetle [10]; 1 day after treatment (control 206)
  Average number of live insects/10 plants: 7
Colorado potato beetle [10]; 3 days after treatment (control 179)
  Average number of live insects/10 plants: 10
Colorado potato beetle [10]; 9 days after treatment (control 183)
  Average number of live insects/10 plants: 19
Aphidinus matricariae; 1 ppm, 1h
  Mortality %: 20%
Aphidinus matricariae; 1 ppm, 5h
  Mortality %: 100%
Aphidinus matricariae; 1 ppm, 24h
  Mortality %: 85%
Aphidinus matricariae; 5 ppm, 1h
  Mortality %: 100%
A. matricariae [11]; 1 ppm
  Mortality %: 0%
A. matricariae [11]; 5 ppm
  Mortality %: 0%
A. matricariae [11]; 10 ppm
  Mortality %: 33.0%
A. matricariae [11]; 33 ppm
  Mortality %: 75.0%
